{"source": "ChEMBL document CHEMBL6115010", "about": "“Targeting glioma with heteroaromatic alkaloids: A review of potential therapeutics” (Bioorg Med Chem, 2025)", "key": {"[1]": {"test_system": "SH-SY5Y", "assay": "Cytotoxicity against human SH-SY5Y cells assessed as reduction in cell viability incubated for 24 hrs by MTT assay", "format": "functional, cell-based"}, "[2]": {"test_system": "SK-N-SH", "assay": "Induction of apoptosis in human SK-N-SH cells assessed as early apoptotic cells at 100 micromol/L incubated for 48 hrs by Annexin V-FITC/Propidium Iodide staining based flow cytometry analysis (reference value: 10.3 %)", "format": "functional", "settings": "dose 100 µmol/L, at 100 µM"}, "[3]": {"test_system": "SK-N-SH", "assay": "Induction of apoptosis in human SK-N-SH cells assessed as early apoptotic cells at 200 micromol/L incubated for 48 hrs by Annexin V-FITC/Propidium Iodide staining based flow cytometry analysis (reference value: 10.3 %)", "format": "functional", "settings": "dose 200 µmol/L, at 200 µM"}, "[4]": {"test_system": "U-87 MG", "assay": "Cytotoxicity against human U-87 MG cells assessed as reduction in cell viability at 400 uM measured for 24 hrs relative to control", "format": "functional, U-87MG ATCC"}, "[5]": {"test_system": "U-251", "assay": "Cytotoxicity against human U-251MG cells assessed as cell growth inhibition incubated for 24 hrs by MTT assay", "format": "functional, cell-based", "settings": "U-251, 24 h"}, "[6]": {"test_system": "T98G", "assay": "Cytotoxicity against human T98G cells assessed as reduction in cell viability at 400 uM measured for 24 hrs relative to control", "format": "functional"}, "[7]": {"test_system": "U-87 MG", "assay": "Antiproliferative activity against human U-87 MG cells assessed as reduction in cell viability measured for 96 hrs by MTT assay", "format": "functional, cell-based, U-87MG ATCC"}, "[8]": {"test_system": "C6", "assay": "Antiproliferative activity against rat C6 cells assessed as reduction in cell viability measured for 96 hrs by MTT assay", "format": "functional, cell-based", "settings": "C6, 96 h"}, "[9]": {"assay": "Antiproliferative activity against mouse GL26 cells assessed as reduction in cell viability measured for 96 hrs by MTT assay", "format": "functional, cell-based", "settings": "GL26, 96 h"}, "[10]": {"test_system": "SNB-19", "assay": "Antiproliferative activity against human SNB-19 cells assessed as reduction in cell viability measured for 96 hrs by MTT assay", "format": "functional, cell-based", "settings": "SNB-19, 96 h"}, "[11]": {"test_system": "C6", "assay": "Antitumor activity against rat C6 cells implanted in athymic nude mouse model assessed as tumor growth inhibition at 30 mg/kg, sc administered once daily for 12 days and measured after 34 days relative to control", "format": "functional", "settings": "C6, 288 h, time 12 day, read-out: TGI"}, "[12]": {"test_system": "C6", "assay": "Antitumor activity against rat C6 cells implanted in athymic nude mouse model assessed as tumor growth inhibition at 30 mg/kg, ip administered once daily for 12 days and measured after 34 days relative to control", "format": "functional", "settings": "C6, 816 h, time 34 day, read-out: TGI"}, "[13]": {"test_system": "U-87 MG", "assay": "Antitumor activity against human U-87MG cells xenografted in athymic nude mouse model assessed as tumor growth inhibition at 30 mg/kg, ip administered once daily for 12 days relative to control", "format": "functional, U-87MG ATCC", "settings": "288 h, time 12 day, read-out: TGI"}, "[14]": {"test_system": "9L", "assay": "Antiproliferative activity against rat 9L cells assessed as reduction in cell viability measured for 96 hrs by MTT assay", "format": "functional, cell-based"}, "[15]": {"assay": "Antiproliferative activity against human U373 MG cells assessed as reduction in cell growth measured for 72 hrs by MTT assay", "format": "functional, cell-based, U-373MG ATCC"}, "[16]": {"test_system": "U-87 MG", "assay": "Cytotoxicity against human U-87 MG cells assessed as reduction in cell viability in presence of Delta-Tocotrienol incubated for 72 hrs by neutral red uptake assay", "format": "functional, cell-based, U-87MG ATCC"}, "[17]": {"test_system": "MRC5", "assay": "Cytotoxicity against human MRC5 cells assessed as reduction in cell viability incubated for 72 hrs by neutral red uptake assay", "format": "functional, cell-based", "settings": "MRC5, 72 h"}, "[18]": {"test_system": "U-87 MG", "assay": "Synergistic antiproliferative activity against human U-87 MG cells assessed as combination index at 10 uM incubated for 48 hrs in presence of 1.5 microg/ml Delta-Tocotrienol", "format": "functional, U-87MG ATCC"}, "[19]": {"test_system": "U-87 MG", "assay": "Cytotoxicity against human U-87 MG cells assessed as reduction in cell viability incubated for 72 hrs by neutral red uptake assay", "format": "functional, cell-based, U-87MG ATCC"}, "[20]": {"test_system": "U-87 MG", "assay": "Cytotoxicity against human U-87 MG cells assessed as reduction in cell viability in presence of Jerantinine B incubated for 72 hrs by neutral red uptake assay", "format": "functional, cell-based, U-87MG ATCC"}, "[21]": {"test_system": "U-251", "assay": "Antiproliferative activity against human U-251MG cells assessed as inhibition of cell growth measured for 72 hrs by MTT assay", "format": "functional, cell-based", "settings": "U-251, 72 h"}, "[22]": {"test_system": "U-251", "assay": "Cytotoxicity against human U-251MG cells assessed as inhibition of cell growth measured for 72 hrs by MTT assay", "format": "functional, cell-based", "settings": "U-251, 72 h"}, "[23]": {"test_system": "T98G", "assay": "Antiproliferative activity against human T98G cells assessed as inhibition of cell growth measured for 72 hrs by MTT assay", "format": "functional, cell-based"}, "[24]": {"test_system": "T98G", "assay": "Cytotoxicity against human T98G cells assessed as inhibition of cell growth measured for 72 hrs by MTT assay", "format": "functional, cell-based"}, "[25]": {"test_system": "A 172", "assay": "Antiproliferative activity against human A-172 cells assessed as inhibition of cell growth measured for 72 hrs", "format": "functional, cell-based", "settings": "A 172, 72 h"}, "[26]": {"test_system": "T98G", "assay": "Antiproliferative activity against human T98G cells assessed as inhibition of cell growth measured for 72 hrs", "format": "functional, cell-based"}, "[27]": {"assay": "Antiproliferative activity against human D-54MG cells assessed as inhibition of cell growth measured for 72 hrs", "format": "functional, cell-based", "settings": "D54MG"}, "[28]": {"test_system": "U-87 MG", "assay": "Antiproliferative activity against human U-87 MG cells assessed as inhibition of cell growth measured for 72 hrs", "format": "functional, cell-based, U-87MG ATCC"}, "[29]": {"test_system": "U-251", "assay": "Antiproliferative activity against human U-251MG cells assessed as inhibition of cell growth measured for 72 hrs", "format": "functional, cell-based", "settings": "U-251, 72 h"}, "[30]": {"assay": "Cytotoxicity against rat ACNU-resistant C6 cell assessed as reduction in cell growth in presence of reserpine at 20 uM incubated for 24 hrs by MTT assay", "format": "functional, cell-based"}, "[31]": {"assay": "Cytotoxicity against rat ACNU-resistant C6/ACNU cells assessed as reduction in cell growth in presence of reserpine at 10 uM incubated for 24 hrs by MTT assay", "format": "functional, cell-based"}, "[32]": {"assay": "Cytotoxicity against rat ACNU-resistant C6/ACNU cells assessed as reduction in cell growth in presence of reserpine at 20 uM incubated for 24 hrs by MTT assay", "format": "functional, cell-based"}, "[33]": {"assay": "Antitumor activity against rat C6/ACNUcells implanted in Wistar rat assessed as increase in life span at 1 mg/kg relative to control", "format": "functional, C6/ACNU"}, "[34]": {"assay": "Cytotoxicity against rat ACNU-resistant C6 cell assessed as reduction in cell growth in presence of reserpine at 10 uM incubated for 24 hrs by MTT assay", "format": "functional, cell-based"}, "[35]": {"assay": "Cytotoxicity against rat ACNU-resistant C6 cells assessed as reduction in cell growth incubated for 24 hrs by MTT assay", "format": "functional, cell-based"}, "[36]": {"assay": "Cytotoxicity against rat ACNU-resistant C6/ACNU cells assessed as reduction in cell growth incubated for 24 hrs by MTT assay", "format": "functional, cell-based"}, "[37]": {"test_system": "U-251", "assay": "Antiproliferative activity against human U-251MG cells assessed as reduction in cell growth measured for 48 hrs by MTT assay", "format": "functional, cell-based", "settings": "U-251, 48 h"}}}
{"smiles": "Nc1ncnc2c1ncn2[C@@H]1O[C@H](CO)C[C@H]1O", "note": "[CORDYCEPIN]", "values": [{"measurement": "IC50", "setting": "[1]", "result": 175, "unit": "µM"}, {"measurement": "Activity", "setting": "[2]", "result": 29.8, "unit": "%"}, {"measurement": "Activity", "setting": "[3]", "result": 29.8, "unit": "%"}, {"measurement": "Activity", "setting": "[4]", "result": 35, "unit": "%"}, {"measurement": "IC50", "setting": "[5]", "result": 250, "unit": "µM"}, {"measurement": "Activity", "setting": "[6]", "result": 76, "unit": "%"}]}
{"smiles": "CC(C)=CCC/C(C)=C/CC/C(C)=C/CN1C(=O)c2cccc(O)c2Nc2c(O)cc(O)cc21", "note": "[DIAZEPINOMICIN]", "values": [{"measurement": "IC50", "setting": "[7]", "result": 10.9, "unit": "µM"}, {"measurement": "IC50", "setting": "[8]", "result": 4.3, "unit": "µM"}, {"measurement": "IC50", "setting": "[9]", "result": 8.9, "unit": "µM"}, {"measurement": "IC50", "setting": "[10]", "result": 5.3, "unit": "µM"}, {"measurement": "inhibition in vivo at 30 mg/kg", "setting": "[11]", "result": 60, "unit": "%"}, {"measurement": "inhibition in vivo at 30 mg/kg", "setting": "[12]", "result": 66, "unit": "%"}, {"measurement": "inhibition in vivo at 30 mg/kg", "setting": "[13]", "result": 36, "unit": "%"}, {"measurement": "IC50", "setting": "[14]", "result": 8.3, "unit": "µM"}]}
{"smiles": "O=C1NC(=O)c2c1c1[nH]cnc1c1[nH]c3ccccc3c21", "note": "[GRANULATIMIDE]", "values": [{"measurement": "IC50", "setting": "[15]", "result": 6, "unit": "µM"}]}
{"smiles": "CC[C@@]12CC(C(=O)OC)=C3Nc4cc(OC)c(O)cc4[C@@]34CCN(C[C@@H]3O[C@@H]31)[C@@H]24", "note": "[JERANTININE B]", "values": [{"measurement": "IC50", "setting": "[16]", "result": 0.19, "unit": "µg/mL"}, {"measurement": "IC50", "setting": "[17]", "result": 2.83, "unit": "µg/mL"}, {"measurement": "CI", "setting": "[18]", "result": 0.85}, {"measurement": "IC50", "setting": "[19]", "result": 0.74, "unit": "µg/mL"}, {"measurement": "IC50", "setting": "[20]", "result": 0.74, "unit": "µg/mL"}]}
{"smiles": "COc1cc(/C=C/C(=O)NCCc2c[nH]c3ccc(O)cc23)ccc1O", "note": "[N-FERULOYL SEROTONIN]", "values": [{"measurement": "IC50", "setting": "[21]", "result": 590, "unit": "µM"}, {"measurement": "IC50", "setting": "[22]", "result": 238, "unit": "µM"}, {"measurement": "IC50", "setting": "[23]", "result": 730, "unit": "µM"}, {"measurement": "IC50", "setting": "[24]", "result": 193, "unit": "µM"}]}
{"smiles": "O=C(/C=C/c1ccc(O)cc1)NCCc1c[nH]c2ccc(O)cc12", "note": "[N-P-COUMAROYL SEROTONIN]", "values": [{"measurement": "IC50", "setting": "[25]", "result": 62, "unit": "µM"}, {"measurement": "IC50", "setting": "[26]", "result": 68, "unit": "µM"}, {"measurement": "IC50", "setting": "[27]", "result": 81, "unit": "µM"}, {"measurement": "IC50", "setting": "[28]", "result": 48, "unit": "µM"}, {"measurement": "IC50", "setting": "[29]", "result": 77, "unit": "µM"}]}
{"smiles": "Cc1ncc(CNC(=O)N(CCCl)N=O)c(N)n1.Cl", "note": "[NIMUSTINE HYDROCHLORIDE]", "values": [{"measurement": "IC50", "setting": "[30]", "result": 3.1, "unit": "µg/mL"}, {"measurement": "IC50", "setting": "[31]", "result": 8, "unit": "µg/mL"}, {"measurement": "IC50", "setting": "[32]", "result": 2.5, "unit": "µg/mL"}, {"measurement": "Activity", "setting": "[33]", "result": 143, "unit": "%"}, {"measurement": "IC50", "setting": "[34]", "result": 4.1, "unit": "µg/mL"}, {"measurement": "IC50", "setting": "[35]", "result": 8.3, "unit": "µg/mL"}, {"measurement": "IC50", "setting": "[36]", "result": 120, "unit": "µg/mL"}]}
{"smiles": "CC(C)(O)[C@H]1O[C@H]2CC[C@@]3(C)[C@@](O)(CC[C@H]4Cc5c([nH]c6ccccc56)[C@@]43C)C2=CC1=O", "note": "[PAXILLINE]", "values": [{"measurement": "IC50", "setting": "[37]", "result": "~0.013", "unit": "µM"}]}
